{
  "source": "paper PMC6601628",
  "about": "(Science (New York, N.Y.), 2019)",
  "key": {"eIF2B(βγδε)2 octamer [1]": {"biological_target": "eIF2B(βγδε)2 octamer (Homo sapiens, UniProt P49770+Q9UI10)", "sequence (P49770 whole entry)": "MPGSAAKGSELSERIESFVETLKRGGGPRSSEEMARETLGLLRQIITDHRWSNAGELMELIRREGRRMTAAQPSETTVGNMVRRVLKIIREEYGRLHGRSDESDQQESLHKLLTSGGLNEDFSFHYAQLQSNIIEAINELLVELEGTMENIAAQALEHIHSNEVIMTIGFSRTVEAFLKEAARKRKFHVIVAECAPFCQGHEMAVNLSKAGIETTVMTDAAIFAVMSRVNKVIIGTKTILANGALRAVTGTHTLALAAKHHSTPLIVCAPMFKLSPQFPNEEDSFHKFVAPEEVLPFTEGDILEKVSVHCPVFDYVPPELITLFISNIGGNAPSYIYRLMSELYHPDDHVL", "sequence (Q9UI10 whole entry)": "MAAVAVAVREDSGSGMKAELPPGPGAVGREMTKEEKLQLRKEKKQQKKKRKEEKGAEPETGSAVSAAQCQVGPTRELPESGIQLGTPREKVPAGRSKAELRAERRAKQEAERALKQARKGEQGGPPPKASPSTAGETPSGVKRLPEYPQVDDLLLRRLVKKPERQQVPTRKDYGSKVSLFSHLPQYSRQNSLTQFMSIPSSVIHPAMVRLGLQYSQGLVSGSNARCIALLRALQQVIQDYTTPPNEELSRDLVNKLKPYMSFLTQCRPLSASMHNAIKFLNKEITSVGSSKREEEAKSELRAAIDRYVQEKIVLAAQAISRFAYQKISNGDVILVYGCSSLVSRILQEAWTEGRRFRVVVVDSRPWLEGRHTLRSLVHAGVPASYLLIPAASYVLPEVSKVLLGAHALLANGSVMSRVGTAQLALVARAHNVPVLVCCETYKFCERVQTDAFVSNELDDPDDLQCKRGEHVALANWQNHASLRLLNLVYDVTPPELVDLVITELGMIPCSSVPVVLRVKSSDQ", "sequence (Q9NR50 whole entry partner)": "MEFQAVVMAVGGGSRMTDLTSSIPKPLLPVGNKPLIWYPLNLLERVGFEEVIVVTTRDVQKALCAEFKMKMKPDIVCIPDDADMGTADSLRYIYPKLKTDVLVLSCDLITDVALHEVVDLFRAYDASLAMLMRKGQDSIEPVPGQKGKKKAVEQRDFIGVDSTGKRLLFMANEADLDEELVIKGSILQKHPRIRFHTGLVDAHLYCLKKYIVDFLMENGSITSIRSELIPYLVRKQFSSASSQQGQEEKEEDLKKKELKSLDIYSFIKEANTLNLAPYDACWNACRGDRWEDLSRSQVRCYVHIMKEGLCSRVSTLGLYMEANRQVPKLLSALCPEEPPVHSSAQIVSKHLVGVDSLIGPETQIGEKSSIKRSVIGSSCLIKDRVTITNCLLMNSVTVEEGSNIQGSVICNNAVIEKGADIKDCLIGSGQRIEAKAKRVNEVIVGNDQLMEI", "sequence (Q13144 2-721 partner)": "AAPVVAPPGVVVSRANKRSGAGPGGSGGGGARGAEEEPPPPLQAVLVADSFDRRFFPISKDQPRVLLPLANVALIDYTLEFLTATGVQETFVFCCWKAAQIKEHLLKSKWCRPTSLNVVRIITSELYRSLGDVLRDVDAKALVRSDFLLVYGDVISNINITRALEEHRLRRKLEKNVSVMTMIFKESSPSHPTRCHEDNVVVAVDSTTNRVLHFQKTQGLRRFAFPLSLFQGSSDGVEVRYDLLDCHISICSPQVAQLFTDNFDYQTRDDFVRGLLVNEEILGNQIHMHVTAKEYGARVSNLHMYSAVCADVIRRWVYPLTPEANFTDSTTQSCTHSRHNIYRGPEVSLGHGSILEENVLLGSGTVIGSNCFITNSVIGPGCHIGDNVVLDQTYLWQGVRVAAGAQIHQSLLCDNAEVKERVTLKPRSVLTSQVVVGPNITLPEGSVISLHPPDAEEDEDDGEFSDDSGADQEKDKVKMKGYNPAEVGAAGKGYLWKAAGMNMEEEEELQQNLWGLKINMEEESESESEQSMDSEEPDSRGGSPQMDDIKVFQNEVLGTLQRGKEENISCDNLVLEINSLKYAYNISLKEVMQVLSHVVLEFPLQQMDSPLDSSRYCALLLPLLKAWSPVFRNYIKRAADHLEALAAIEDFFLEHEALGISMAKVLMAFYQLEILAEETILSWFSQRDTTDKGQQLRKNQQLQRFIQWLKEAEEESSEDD", "experiment": "GEF activity, loading of fluorescent GDP onto eIF2", "assay_type": "biochemical", "details": "activator; stabilises assembly of two tetramers; substrate eIF2"}, "eIF2B(βγδε)2 octamer [2]": {"biological_target": "eIF2B(βγδε)2 octamer (Homo sapiens, UniProt P49770+Q9UI10, P49770:N132D)", "sequence (P49770 whole entry N132D)": "as the sequence (P49770 whole entry) above, with N132D counted along it", "sequence (Q9UI10 whole entry)": "as the sequence (Q9UI10 whole entry) above", "sequence (Q9NR50 whole entry partner)": "as the sequence (Q9NR50 whole entry partner) above", "sequence (Q13144 2-721 partner)": "as the sequence (Q13144 2-721 partner) above", "experiment": "GEF activity, loading of fluorescent GDP onto eIF2", "assay_type": "biochemical", "details": "activator; stabilises assembly of two tetramers; substrate eIF2"}},
  "data": [
    {"smiles": "O=C(COc1ccc(Cl)cc1)N[C@H]1CC[C@H](NC(=O)COc2ccc(Cl)cc2)CC1", "note": "[ISRIB]", "values": [
      {"measurement": "GEF activity, loading of fluorescent GDP onto eIF2", "setting": "eIF2B(βγδε)2 octamer [1]", "value": "GEF activity of the ISRIB-stabilized eIF2B octamer"},
      {"measurement": "GEF activity, loading of fluorescent GDP onto eIF2", "setting": "eIF2B(βγδε)2 octamer [2]", "value": "eIF2B-βN132D tetramers and ISRIB-stabilized octamers"}
    ]}
  ]
}
